Reference: patent US9981942B2, “Piperidine derivatives having multimodal activity against pain” (LABORATORIOS DEL DR. ESTEVE S.A., priority 2013, dated 2018)

System: σ1 receptor and the μ-opiod receptor
Experiment: μ and σ1 dual binding: combined class from the Ki of both radioligand assays
Design: species or system human; key to μ and σ1 dual binding: +: Both Ki-μ and Ki-σ1>=500 nM; ++: One Ki<500 nM while the other Ki is >=500 nM; +++: Both Ki-μ and Ki-σ1<500 nM; ++++: Both Ki-μ and Ki-σ1<100 nM
Details: transfected HEK-293 membranes (σ1), transfected CHO-K1 cell membranes (μ); for μ and σ1 dual binding: combined class for Ki-μ and Ki-σ1
Procedure: To investigate binding properties of σ1 receptor ligands to human σ1 receptor, transfected HEK-293 membranes and [^3H](+)-pentazocine (Perkin Elmer, NET-1056), as the radioligand, were used. The assay was carried out with 7 μg of membrane suspension, 5 nM of [^3H](+)-pentazocine in either absence or presence of either buffer or 10 μM Haloperidol for total and non-specific binding, respectively. Binding buffer contained Tris-HCl 50 mM at pH 8. Plates were incubated at 37° C. for 120 minutes. After the incubation period, the reaction mix was then transferred to MultiScreen HTS, FC plates (Millipore), filtered and plates were washed 3 times with ice-cold 10 mM Tris-HCL (pH7.4). Filters were dried and counted at approximately 40% efficiency in a MicroBeta scintillation counter (Perkin-Elmer) using EcoScint liquid scintillation cocktail
To investigate binding properties of mu-opioid receptor ligands to human μ-opioid receptor, transfected CHO-K1 cell membranes and [^3H]-DAMGO (Perkin Elmer, ES-542-C), as the radioligand, were used. The assay was carried out with 20 μg of membrane suspension, 1 nM of [^3H]-DAMGO in either absence or presence of either buffer or 10 μM Naloxone for total and non-specific binding, respectively. Binding buffer contained Tris-HCl 50 mM, MgCl2 5 mM at pH 7.4. Plates were incubated at 27° C. for 60 minutes. After the incubation period, the reaction mix was then transferred to MultiScreen HTS, FC plates (Millipore), filtered and plates were washed 3 times with ice-cold 10 mM Tris-HCL (pH 7.4). Filters were dried and counted at approximately 40% efficiency in a MicroBeta scintillation counter (Perkin-Elmer) using EcoScint liquid scintillation cocktail.
The following scale as been adopted for representing the binding to the σ1 receptor and the μ-opiod receptor expressed as Ki: • + Both Ki-μ and Ki-σ1>=500 nM • ++ One Ki<500 nM while the other Ki is >=500 nM • +++ Both Ki-μ and Ki-σ1<500 nM • ++++ Both Ki-μ and Ki-σ1<100 nM

Compound | μ and σ1 dual binding | Ki range for both μ and σ1 (dual-binding class)
Oc1cccc(C2CCN(Cc3cn(Cc4ncccc4F)cn3)CC2)c1 [Example 189, 3-(1-((1-((3-fluoropyridin-2-yl)methyl)-1H-imidazol-4-yl)methyl)piperidin-4-yl)phenol] | ++ | 
Oc1cccc(C2CCN(Cc3nnn4c3-c3ccccc3C4)CC2)c1 [Example 120, 3-(1-((8H-[1,2,3]triazolo[5,1-a]isoindol-3-yl)methyl)piperidin-4-yl)phenol] | ++ | 
CC(C)S(=O)(=O)Nc1cccc(C2CCN(Cc3cc(-c4ccccn4)no3)CC2)c1 [Example 181, N-(3-(1-((3-(pyridin-2-yl)isoxazol-5-yl)methyl)piperidin-4-yl)phenyl)propane-2-sulfonamide] | ++ | 
CC(=O)Nc1cc(F)cc(C2CCN(Cc3cn(-c4ccccc4)nn3)CC2)c1 [Example 39, N-(3-fluoro-5-(1-((1-phenyl-1H-1,2,3-triazol-4-yl)methyl)piperidin-4-yl)phenyl)acetamide] |  | < 500 nM
Oc1cccc(C2CCN(Cc3cn(-c4ccc(Cl)cn4)nn3)CC2)c1 [Example 148, 3-(1-((1-(5-chloropyridin-2-yl)-1H-1,2,3-triazol-4-yl)methyl)piperidin-4-yl)phenol] |  | < 100 nM
NC(=O)c1cccc(C2CCN(Cc3cn(-c4ccccc4)nn3)CC2)c1 [Example 6, 3-(1-((1-phenyl-1H-1,2,3-triazol-4-yl)methyl)piperidin-4-yl)benzamide] |  | < 500 nM
Cc1ccc(C2CCN(Cc3cn(-c4ccccc4)nn3)CC2)cc1O [Example 52, 2-methyl-5-(1-((1-phenyl-1H-1,2,3-triazol-4-yl)methyl)piperidin-4-yl)phenol] |  | < 100 nM
Oc1cccc(C2CCN(Cc3cn(Cc4ccccc4F)nn3)CC2)c1 [Example 4, 3-(1-((1-(2-fluorobenzyl)-1H-1,2,3-triazol-4-yl)methyl)piperidin-4-yl)phenol] |  | < 100 nM
CS(=O)(=O)Nc1cc(C2CCN(Cc3cc(-c4ccccc4)no3)CC2)ccc1F [Example 180, N-(2-fluoro-5-(1-((3-phenylisoxazol-5-yl)methyl)piperidin-4-yl)phenyl)methanesulfonamide] |  | < 500 nM
CCC(=O)Nc1cccc(C2CCN(Cc3cn(-c4ccccc4F)nn3)CC2)n1 [Example 211, N-(6-(1-((1-(2-fluorophenyl)-1H-1,2,3-triazol-4-yl)methyl)piperidin-4-yl)pyridin-2-yl)propionamide] | ++ | 
CS(=O)(=O)Nc1cccc(C2CCN(Cc3cn(-c4ccccc4)nn3)CC2)n1 [Example 191, N-(6-(1-((1-phenyl-1H-1,2,3-triazol-4-yl)methyl)piperidin-4-yl)pyridin-2-yl)methanesulfonamide] | ++ | 
Oc1cccc(C2CCN(Cc3cnn(Cc4ccccn4)c3)CC2)c1 [Example 171, 3-(1-((1-(pyridin-2-ylmethyl)-1H-pyrazol-4-yl)methyl)piperidin-4-yl)phenol] |  | < 500 nM
CC(C)S(=O)(=O)Nc1cccc(C2CCN(Cc3cn(-c4ccccc4F)nn3)CC2)n1 [Example 208, N-(6-(1-((1-(2-fluorophenyl)-1H-1,2,3-triazol-4-yl)methyl)piperidin-4-yl)pyridin-2-yl)propane-2-sulfonamide] |  | < 500 nM
CC(C)S(=O)(=O)Nc1cccc(C2CCN(Cc3cnn(Cc4cccc(F)n4)c3)CC2)c1 [Example 170, N-(3-(1-((1-((6-fluoropyridin-2-yl)methyl)-1H-pyrazol-4-yl)methyl)piperidin-4-yl)phenyl)propane-2-sulfonamide] |  | < 100 nM
Oc1cccc(C2CCN(Cc3cn(-c4ccc(Cl)c(Cl)c4)nn3)CC2)c1 [Example 40, 3-(1-((1-(3,4-dichlorophenyl)-1H-1,2,3-triazol-4-yl)methyl)piperidin-4-yl)phenol] |  | < 100 nM
CCC(=O)Nc1cccc(C2CCN(Cc3cc(-c4ccccc4)no3)CC2)n1 [Example 201, N-(6-(1-((3-phenylisoxazol-5-yl)methyl)piperidin-4-yl)pyridin-2-yl)propionamide] |  | < 500 nM

Compound | μ and σ1 dual binding | Ki range for both μ and σ1 (dual-binding class)
CNS(=O)(=O)c1cccc(C2CCN(Cc3cn(-c4ccccc4)nn3)CC2)c1 [Example 17, N-methyl-3-(1-((1-phenyl-1H-1,2,3-triazol-4-yl)methyl)piperidin-4-yl)benzenesulfonamide] | ++ | 
CC(C)S(=O)(=O)Nc1cccc(C2CCN(Cc3cn(Cc4ccc(F)cn4)nn3)CC2)c1 [Example 135, N-(3-(1-((1-((5-fluoropyridin-2-yl)methyl)-1H-1,2,3-triazol-4-yl)methyl)piperidin-4-yl)phenyl)propane-2-sulfonamide] | ++ | 
CCC(=O)Nc1cccc(C2CCN(Cc3cn(-c4ccccc4)nn3)CC2)c1 [Example 7, N-(3-(1-((1-phenyl-1H-1,2,3-triazol-4-yl)methyl)piperidin-4-yl)phenyl)propionamide] |  | < 500 nM
CS(=O)(=O)Nc1cccc(C2CCN(Cc3cn([C@H]4c5ccccc5C[C@@H]4O)nn3)CC2)c1 [Example 91, N-(3-(1-((1-((1S,2S)-2-hydroxy-2,3-dihydro-1H-inden-1-yl)-1H-1,2,3-triazol-4-yl)methyl)piperidin-4-yl)phenyl)methanesulfonamide] | ++ | 
Oc1cccc(C2CCN(Cc3cc(-c4ccccc4)no3)CC2)c1 [Example 176, 3-(1-((3-phenylisoxazol-5-yl)methyl)piperidin-4-yl)phenol] |  | < 100 nM
Oc1cccc(C2CCN(Cc3cn(C4CCCCC4)nn3)CC2)c1 [Example 19, 3-(1-((1-cyclohexyl-1H-1,2,3-triazol-4-yl)methyl)piperidin-4-yl)phenol] |  | < 100 nM
CS(=O)(=O)Nc1ccc(F)c(C2CCN(Cc3cc(-c4ccccc4)no3)CC2)c1 [Example 179, N-(4-fluoro-3-(1-((3-phenylisoxazol-5-yl)methyl)piperidin-4-yl)phenyl)methanesulfonamide] |  | < 500 nM
CS(=O)(=O)Nc1cccc(C2CCN(Cc3cn(Cc4cccnc4)nn3)CC2)c1 [Example 99, N-(3-(1-((1-(pyridin-3-ylmethyl)-1H-1,2,3-triazol-4-yl)methyl)piperidin-4-yl)phenyl)methanesulfonamide] | ++ | 
Oc1cccc(C2CCN(Cc3cc(Cc4ccccc4)no3)CC2)c1 [Example 177, 3-(1-((3-benzylisoxazol-5-yl)methyl)piperidin-4-yl)phenol] |  | < 100 nM
CS(=O)(=O)Nc1cccc(C2CCN(Cc3cn(Cc4ccccc4)nn3)CC2)c1 [Example 37, N-(3-(1-((1-benzyl-1H-1,2,3-triazol-4-yl)methyl)piperidin-4-yl)phenyl)methanesulfonamide] |  | < 500 nM
CC(C)S(=O)(=O)Nc1cccc(C2CCN(Cc3cn(Cc4ccc(C(F)(F)F)nc4)nn3)CC2)c1 [Example 124, N-(3-(1-((1-((6-(trifluoromethyl)pyridin-3-yl)methyl)-1H-1,2,3-triazol-4-yl)methyl)piperidin-4-yl)phenyl)propane-2-sulfonamide] | ++ | 
COc1cccc(-n2cc(CN3CCC(c4cccc(O)c4)CC3)nn2)c1 [Example 44, 3-(1-((1-(3-methoxyphenyl)-1H-1,2,3-triazol-4-yl)methyl)piperidin-4-yl)phenol] |  | < 100 nM
CCC(=O)Nc1cccc(C2CCN(Cc3cn([C@@H]4c5ccccc5C[C@H]4O)nn3)CC2)n1 [Example 204, N-(6-(1-((1-((1R,2R)-2-hydroxy-2,3-dihydro-1H-inden-1-yl)-1H-1,2,3-triazol-4-yl)methyl)piperidin-4-yl)pyridin-2-yl)propionamide] | ++ | 
CS(=O)(=O)Nc1cccc(C2CCN(Cc3cn(Cc4ccc(C(F)(F)F)cc4)nn3)CC2)c1 [Example 57, N-(3-(1-((1-(4-(trifluoromethyl)benzyl)-1H-1,2,3-triazol-4-yl)methyl)piperidin-4-yl)phenyl)methanesulfonamide] |  | < 500 nM
CC(C)S(=O)(=O)Nc1cccc(C2CCN(Cc3cncn3Cc3ccccn3)CC2)c1 [Example 187, N-(3-(1-((1-(pyridin-2-ylmethyl)-1H-imidazol-5-yl)methyl)piperidin-4-yl)phenyl)propane-2-sulfonamide] | ++ | 
